These are literature values, as cited in patent publication EP0640130B1, “CHIMERIC M[…] ANALOGUES AND METHODS OF USE THEREOF” (CREATIVE BIOMOLECULES, INC., priority 1992, dated 1993).

Each structure is given as a SMILES string.

The series has as its target 26-10 sFv (anti-digoxin single-chain Fv).

For the compound `C[C@@H]1O[C@@H](O[C@H]2C[C@@H](O)[C@]3(CO)[C@H]4[C@H](O)C[C@]5(C)[C@@H](C6=CC(=O)OC6)CC[C@]5(O)[C@@H]4CC[C@]3(O)C2)[C@H](O)[C@H](O)[C@H]1O` [Ouabain], the “Ka for association with 26-10 sFv” value was “about 10^7 M^-1”.
